{"source": "patent US12201632B2", "about": "“Levoketoconazole for treatment of congenital adrenal hyperplasia and primary aldosteronism” (Strongbridge Dublin Limited, priority 2018, dated 2025)", "key": {"[1]": {"test_system": "EAS associated adrenal hyperplasia no. 1 primary culture", "test": "Steroid profile by LC/MS-MS in EAS associated adrenal hyperplasia no. 1", "assay_type": "cell-based, human", "details": "for 11-DOC absolute change vs control / 11-DOC percentage change vs control / 17-OHP absolute change vs control / 17-OHP percentage change vs control / Androstenedione absolute change vs control / Androstenedione percentage change vs control / Corticosterone absolute change vs control / Corticosterone percentage change vs control / Cortisol absolute change vs control / Cortisol percentage change vs control / DHEA absolute change vs control / DHEAS absolute change vs control / Prog absolute change vs control / Prog percentage change vs control / Testosterone absolute change vs control / Testosterone percentage change vs control: EAS associated adrenal hyperplasia no. 1, Basal", "method": "(§1) To obtain primary cultures, adrenal specimens (adrenocortical adenomas, adrenal hyperplasias and adrenocortical carcinomas) were collected after adrenalectomy at the department of Surgery, Erasmus University Medical Center, Rotterdam, the Netherlands, between April 2016 and May 2018. The study was conducted under guidelines that have been approved by the Medical Ethics Committee of the Erasmus Medical Center and informed consent was obtained from all patients. Immediately after surgery, specimens were minced into small pieces of 2-3 mm^3, washed in culture medium and centrifuged for 5 minutes at 600 g. The tissue was stored overnight in culture medium at 4° C., where after the tissue was centrifuged again and the supernatant was removed. Fragments were dissociated using 10-25 ml collagenase type 1 (2 mg/ml: Sigma-Aldrich), followed by incubation at 37° C. for up to two hours. Ficoll (GE healthcare) density gradient separation was used once or twice as required in order to separate contaminating red blood cells from the tumor cells. Cell viability and cell amount were counted by trypan blue exclusion. Dissociated cells were plated at a density of 10^5 cells per well. ACTH-secreting corticotroph pituitary adenoma tissue from patients with Cushing's disease (n=2) was available after transsphenoidal surgery. Single-cell suspensions of the pituitary adenoma tissues were prepared as previously described in detail.\n(§2) Primary culture conditions for primary cultures were similar as described in the section ‘cell culture and compounds’, but with small adjustments: ACTH was used at a concentration of 85 pM (250 pg/mL), treatment was started 3-4 days after plating of the cells and cells were incubated for 3 days, and; for pituitary primary cultures, levoketoconazole and racemic ketoconazole were only tested at a concentration of 1 μM. Owing to a limited number of cells obtained from the specimens, not all experiments were carried out in every primary culture.\n(§3) Cortisol concentrations were measured in the supernatant using a chemiluminescence immunoassay system (Immulite 2000XPi; Siemens DPC Inc., Los Angeles, Calif., USA). In addition, we carried out multi-steroid analysis by liquid chromatography/mass spectrometry (LC/MS-MS) to accurately quantify androstenedione, corticosterone, cortisol, 11-deoxycortisol, DHEA, DHEAS, progesterone, 17-hydroxyprogesterone, and testosterone. Concentrations that were tested on the LC/MS-MS were closest to 50% inhibition or maximal inhibition of cortisol as determined by the immunoassay. Steroids were quantified with respect to a calibration series, with internal standards. Steroids were quantified on a Xevo TQS LC-MS/MS (Waters Chromatography).\n(§4) Statistical analysis was performed using Graphpad Prism 6.0 (Graphpad Software, San Diego, CA). Non-linear regression curve fitting program was used to calculate the half maximal inhibitory concentrations (IC50) on cortisol production. Effects of both compounds on the steroid profile were measured as absolute change compared to control and compared using the Student's t-test. When assessing differences between effects of both compounds, the percentage change was evaluated and compared in order to correct for differences in the vehicle treated control cells. Values of P<0.05 were considered statistically significant and data are presented as mean SEM."}, "[2]": {"test_system": "EAS associated adrenal hyperplasia cultures", "test": "Cortisol production in primary EAS associated adrenal hyperplasia cultures", "assay_type": "cell-based, human", "method": "as §1\nOwing to a limited number of cells obtained from the specimens, not all experiments were carried out in every primary culture.\nas §3, §4"}, "[3]": {"test_system": "human primary adrenocortical cultures", "test": "Cortisol production in human primary adrenocortical cultures, comparison across cultures", "assay_type": "cell-based", "details": "primary human adrenocortical cultures", "method": "as §1, §2, §3, §4"}, "[4]": {"details": "EAS associated adrenal hyperplasia no. 1, ACTH, 5 μM, 3 days"}}, "note": "Read-outs that look alike come from different tables or passages of the source."}
{"smiles": "CC(=O)N1CCN(c2ccc(OC[C@@H]3CO[C@@](Cn4ccnc4)(c4ccc(Cl)cc4Cl)O3)cc2)CC1", "note": "(relative stereo) [levoketoconazole, 2S,4R cis-1-acetyl-4-[4-[[2-(2,4-dichlorophenyl)-2-(1H-imidazol-1-ylmethyl)-1,3-dioxolan-4-yl]methoxyl]phenyl]piperazine]", "values": [{"measurement": "Prog percentage change vs ACTH stimulation with vehicle", "setting": "[1]; [4]", "result": "(+1201%)"}, {"measurement": "Testosterone absolute change vs ACTH stimulation with vehicle", "setting": "[1]; [4]", "result": -0.5513, "unit": "nmol/L"}, {"measurement": "Testosterone percentage change vs ACTH stimulation with vehicle", "setting": "[1]; [4]", "result": "(−85%)"}, {"measurement": "11-DOC absolute change vs control", "setting": "[1]; 0.05 μM, 3 days", "result": -96.33, "unit": "nmol/L"}, {"measurement": "11-DOC percentage change vs control", "setting": "[1]; 0.05 μM, 3 days", "result": "(−37%)"}, {"measurement": "17-OHP absolute change vs control", "setting": "[1]; 0.05 μM, 3 days", "result": -0.4667, "unit": "nmol/L"}, {"measurement": "17-OHP percentage change vs control", "setting": "[1]; 0.05 μM, 3 days", "result": "(−4.6%)"}, {"measurement": "Androstenedione absolute change vs control", "setting": "[1]; 0.05 μM, 3 days", "result": -6.508, "unit": "nmol/L"}, {"measurement": "Androstenedione percentage change vs control", "setting": "[1]; 0.05 μM, 3 days", "result": "(−64%)"}, {"measurement": "Corticosterone absolute change vs control", "setting": "[1]; 0.05 μM, 3 days", "result": -67.07, "unit": "nmol/L"}, {"measurement": "Corticosterone percentage change vs control", "setting": "[1]; 0.05 μM, 3 days", "result": "(−33%)"}, {"measurement": "Cortisol absolute change vs control", "setting": "[1]; 0.05 μM, 3 days", "result": -178.4, "unit": "nmol/L"}, {"measurement": "Cortisol percentage change vs control", "setting": "[1]; 0.05 μM, 3 days", "result": "(−64%)"}, {"measurement": "DHEA absolute change vs control", "setting": "[1]; 0.05 μM, 3 days", "result": "<LLQ"}, {"measurement": "DHEAS absolute change vs control", "setting": "[1]; 0.05 μM, 3 days", "result": "<LLQ"}, {"measurement": "Prog absolute change vs control", "setting": "[1]; 0.05 μM, 3 days", "result": "+5.108 nmol/l"}, {"measurement": "Prog percentage change vs control", "setting": "[1]; 0.05 μM, 3 days", "result": "(+123%)"}, {"measurement": "Testosterone absolute change vs control", "setting": "[1]; 0.05 μM, 3 days", "result": -0.2583, "unit": "nmol/L"}, {"measurement": "Testosterone percentage change vs control", "setting": "[1]; 0.05 μM, 3 days", "result": "(−48%)"}, {"measurement": "11-DOC absolute change vs control", "setting": "[1]; 5 μM, 3 days", "result": -280.5, "unit": "nmol/L"}, {"measurement": "11-DOC percentage change vs control", "setting": "[1]; 5 μM, 3 days", "result": "(−99%)"}, {"measurement": "17-OHP absolute change vs control", "setting": "[1]; 5 μM, 3 days", "result": -14.33, "unit": "nmol/L"}, {"measurement": "17-OHP percentage change vs control", "setting": "[1]; 5 μM, 3 days", "result": "(−93%)"}, {"measurement": "Androstenedione absolute change vs control", "setting": "[1]; 5 μM, 3 days", "result": -7.978, "unit": "nmol/L"}, {"measurement": "Androstenedione percentage change vs control", "setting": "[1]; 5 μM, 3 days", "result": "(−95%)"}, {"measurement": "Corticosterone absolute change vs control", "setting": "[1]; 5 μM, 3 days", "result": -193.8, "unit": "nmol/L"}, {"measurement": "Corticosterone percentage change vs control", "setting": "[1]; 5 μM, 3 days", "result": "(−99%)"}, {"measurement": "Cortisol absolute change vs control", "setting": "[1]; 5 μM, 3 days", "result": -230.3, "unit": "nmol/L"}, {"measurement": "Cortisol percentage change vs control", "setting": "[1]; 5 μM, 3 days", "result": "(−99%)"}, {"measurement": "DHEA absolute change vs control", "setting": "[1]; 5 μM, 3 days", "result": "<LLQ"}, {"measurement": "DHEAS absolute change vs control", "setting": "[1]; 5 μM, 3 days", "result": "<LLQ"}, {"measurement": "Prog absolute change vs control", "setting": "[1]; 5 μM, 3 days", "result": "+13.36 nmol/l"}, {"measurement": "Prog percentage change vs control", "setting": "[1]; 5 μM, 3 days", "result": "(+363%)"}, {"measurement": "Testosterone absolute change vs control", "setting": "[1]; 5 μM, 3 days", "result": -0.3838, "unit": "nmol/L"}, {"measurement": "Testosterone percentage change vs control", "setting": "[1]; 5 μM, 3 days", "result": "(−90%)"}, {"measurement": "total change of steroids", "setting": "[1]; EAS associated adrenal hyperplasia no. 1, basal condition", "result": -343.9, "unit": "nmol/L"}, {"measurement": "total sum of change of the steroids: decrease", "setting": "[1]; EAS associated adrenal hyperplasia no. 1, under ACTH stimulation", "result": 138.5, "unit": "nmol/L"}, {"measurement": "propensity to increase 11-deoxycorticosterone secretion compared to racemic ketoconazole", "setting": "[1]; human adrenal cells in the presence of ACTH drive", "result": "less propensity to increase 11-deoxycorticosterone secretion"}, {"measurement": "IC50", "setting": "[2]; EAS associated hyperplasia no. 1, ACTH (85 μM) stimulated condition, 3 days, read-out: IC50 inhibition of cortisol production", "result": 79.9, "unit": "nM"}, {"measurement": "IC50", "setting": "[2]; EAS associated hyperplasia no. 1, basal condition, 3 days, read-out: IC50 inhibition of cortisol production", "result": 27.7, "unit": "nM"}, {"measurement": "IC50", "setting": "[2]; EAS associated hyperplasia no. 2, basal condition, 3 days, read-out: IC50 inhibition of cortisol production", "result": 22, "unit": "nM"}, {"measurement": "IC50", "setting": "[2]; basal condition, EAS associated adrenal hyperplasia (n=2), read-out: mean IC50 cortisol production", "result": 25.7, "unit": "nM"}, {"measurement": "difference in IC50 value between patients and tissue specimens", "setting": "[3]", "result": 24, "unit": "fold"}]}
